Test results from PubChem BioAssay (NCI).
Values joined by “and” are separate entries in the source; they are usually repeats but may differ in a detail not shown here. Identical values can stand only once.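 Assay format: 96-well plates, 48-hour exposure. GI50: concentration for 50% inhibition of growth. TGI denotes the concentration required for complete inhibition of growth.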

Key:
Assay in all cases: NCI-60 cell line screen, 48 h
K-562 leukemia = test system: K-562 leukemia
DLD-1 colon = test system: DLD-1 colon
MOLT-4 leukemia = test system: MOLT-4 leukemia
CCRF-CEM leukemia = test system: CCRF-CEM leukemia
SNB-78 CNS = test system: SNB-78 CNS
KM20L2 colon = test system: KM20L2 colon
SK-MEL-2 melanoma = test system: SK-MEL-2 melanoma
HCT-15 colon = test system: HCT-15 colon
HL-60(TB) leukemia = test system: HL-60(TB) leukemia

O=S(=O)([O-])c1cccc2cccc(N=Cc3ccccc3[O-])c12.O=S(=O)([O-])c1cccc2cccc(N=Cc3ccccc3[O-])c12.[O]=[U]=[O]
GI50 (K-562 leukemia): 35.5 µM | TGI (K-562 leukemia): > 100 µM | GI50 (DLD-1 colon): > 100 µM | TGI (DLD-1 colon): > 100 µM | GI50 (MOLT-4 leukemia): 29 µM | TGI (MOLT-4 leukemia): > 100 µM | GI50 (CCRF-CEM leukemia): 18.4 µM | TGI (CCRF-CEM leukemia): > 100 µM | GI50 (SNB-78 CNS): > 100 µM | TGI (SNB-78 CNS): > 100 µM | GI50 (KM20L2 colon): > 100 µM | TGI (KM20L2 colon): > 100 µM | GI50 (SK-MEL-2 melanoma): > 100 µM | TGI (SK-MEL-2 melanoma): > 100 µM | GI50 (HCT-15 colon): 49 µM | TGI (HCT-15 colon): > 100 µM

[N-]=[N+]=NC(c1cn(C2CC(O)C(CO)O2)c(=O)[nH]c1=O)C(Br)I (stereo unspecified)
TGI (HL-60(TB) leukemia): > 100 µM | TGI (K-562 leukemia): > 100 µM | TGI (DLD-1 colon): > 100 µM | TGI (MOLT-4 leukemia): > 100 µM | TGI (CCRF-CEM leukemia): > 100 µM | TGI (SNB-78 CNS): > 100 µM | TGI (KM20L2 colon): > 100 µM | TGI (SK-MEL-2 melanoma): > 100 µM | TGI (HCT-15 colon): > 100 µM

Cc1cccc(-c2nc3c(C(=O)NCCN(C)C)cccc3[nH]2)c1
TGI (K-562 leukemia): > 100 µM | TGI (DLD-1 colon): 7.95 µM | TGI (SNB-78 CNS): 14.6 µM | TGI (SK-MEL-2 melanoma): 3.26 µM | TGI (HCT-15 colon): 2.2 µM

CC(=O)CCCCCCCCCCCC[C@@H]1CC[C@H](C)[C@H](O)N1
TGI (HL-60(TB) leukemia): > 100 µM | TGI (K-562 leukemia): > 100 µM | TGI (DLD-1 colon): > 100 µM | TGI (MOLT-4 leukemia): > 100 µM | TGI (CCRF-CEM leukemia): > 100 µM | TGI (SNB-78 CNS): > 100 µM | TGI (KM20L2 colon): > 100 µM | TGI (SK-MEL-2 melanoma): > 100 µM | TGI (HCT-15 colon): > 100 µM

CCCCCCCCCCCCCCCCCC(=O)OCC(CN(C)CCN(C)C)OC(=O)CCCCCCCCCCCCCCCCC (stereo unspecified)
TGI (K-562 leukemia): > 100 µM | TGI (DLD-1 colon): > 100 µM | TGI (MOLT-4 leukemia): 83.7 µM | TGI (CCRF-CEM leukemia): > 100 µM | TGI (SNB-78 CNS): > 100 µM | TGI (KM20L2 colon): > 100 µM | TGI (SK-MEL-2 melanoma): > 100 µM | TGI (HCT-15 colon): > 100 µM

Cc1cccc(C(C)(C)C)c1NC(=O)C(=O)C(C(=O)/C=C\c1ccccc1)C1OC(=O)c2ccccc21 (stereo unspecified)
TGI (HL-60(TB) leukemia): > 100 µM | TGI (K-562 leukemia): > 100 µM | TGI (DLD-1 colon): > 100 µM | TGI (MOLT-4 leukemia): > 100 µM | TGI (CCRF-CEM leukemia): > 100 µM | TGI (SNB-78 CNS): > 100 µM | TGI (KM20L2 colon): > 100 µM | TGI (HCT-15 colon): > 100 µM

O=C1C(Cl)C(c2cccc(O)c2)N1n1cnc2ccccc2c1=O (stereo unspecified)
TGI (HL-60(TB) leukemia): > 100 µM | TGI (K-562 leukemia): > 100 µM | TGI (DLD-1 colon): > 100 µM | TGI (MOLT-4 leukemia): > 100 µM | TGI (SNB-78 CNS): > 100 µM | TGI (KM20L2 colon): > 100 µM | TGI (SK-MEL-2 melanoma): > 100 µM | TGI (HCT-15 colon): > 100 µM

CSc1nc(NC2OCC(OC(C)=O)C(OC(C)=O)C2OC(C)=O)c2c(OC(C)=O)c(C)c(=O)oc2n1 (stereo unspecified)
TGI (HL-60(TB) leukemia): > 100 µM | TGI (K-562 leukemia): > 100 µM | TGI (DLD-1 colon): > 100 µM | TGI (MOLT-4 leukemia): > 100 µM | TGI (CCRF-CEM leukemia): > 100 µM | TGI (SNB-78 CNS): > 100 µM | TGI (KM20L2 colon): > 100 µM | TGI (SK-MEL-2 melanoma): > 100 µM | TGI (HCT-15 colon): > 100 µM

O=C1C(Cl)=C(Cl)C(=O)N1C1C2CC3CC(C2)CC1C3 (stereo unspecified)
TGI (HL-60(TB) leukemia): 79.4 µM | TGI (K-562 leukemia): > 92.2 µM | TGI (DLD-1 colon): > 100 µM | TGI (MOLT-4 leukemia): > 83.3 µM | TGI (CCRF-CEM leukemia): 64.7 µM | TGI (SNB-78 CNS): > 100 µM | TGI (KM20L2 colon): > 100 µM | TGI (SK-MEL-2 melanoma): > 100 µM | TGI (HCT-15 colon): > 100 µM

CCCCCCCCCCC/C(=N/O)c1ccc(O)c2ncccc12
TGI (DLD-1 colon): 8.91 µM | TGI (SNB-78 CNS): > 100 µM | TGI (KM20L2 colon): 17.6 µM | TGI (SK-MEL-2 melanoma): 5.86 µM

Clc1ccc(Cl)c2[s+]snc12
TGI (HL-60(TB) leukemia): > 100 µM | TGI (K-562 leukemia): > 67.9 µM | TGI (DLD-1 colon): > 100 µM | TGI (MOLT-4 leukemia): > 100 µM | TGI (CCRF-CEM leukemia): > 100 µM | TGI (SNB-78 CNS): > 100 µM | TGI (KM20L2 colon): > 100 µM | TGI (HCT-15 colon): > 65.5 µM

CC(C)NCCNC(=O)c1ccccc1Nc1c(Cl)cccc1Cl
TGI (HL-60(TB) leukemia): 24.8 µM | TGI (DLD-1 colon): 25.7 µM | TGI (MOLT-4 leukemia): 27.3 µM | TGI (CCRF-CEM leukemia): 27.1 µM | TGI (SNB-78 CNS): 31.5 µM | TGI (KM20L2 colon): 5.78 µM | TGI (HCT-15 colon): 26.5 µM

CC1OC(n2ncc(=O)[nH]c2=O)C=CC1=O (stereo unspecified)
TGI (HL-60(TB) leukemia): 57.5 µM and 52.7 µM | TGI (K-562 leukemia): > 100 µM | GI50 (DLD-1 colon): 77.2 µM and 31.2 µM | TGI (DLD-1 colon): > 100 µM | GI50 (MOLT-4 leukemia): 81.1 µM and 30.2 µM | TGI (MOLT-4 leukemia): > 100 µM | TGI (SNB-78 CNS): 86.8 µM and > 100 µM | GI50 (KM20L2 colon): > 100 µM and 40.7 µM | TGI (KM20L2 colon): > 100 µM | GI50 (SK-MEL-2 melanoma): > 100 µM and 49.2 µM | TGI (SK-MEL-2 melanoma): > 100 µM | GI50 (HCT-15 colon): 90.5 µM and 34.6 µM | TGI (HCT-15 colon): > 100 µM

[Cl][Bi]([O]c1ccccn1)[O]c1ccccn1
GI50 (DLD-1 colon): > 100 µM | TGI (DLD-1 colon): > 100 µM | GI50 (KM20L2 colon): > 100 µM | TGI (KM20L2 colon): > 100 µM | GI50 (SK-MEL-2 melanoma): > 100 µM | TGI (SK-MEL-2 melanoma): > 100 µM | GI50 (HCT-15 colon): > 100 µM | TGI (HCT-15 colon): > 100 µM

CC(O)/C=C/C(CCC(C)CO)C(C)C (stereo unspecified)
TGI (HL-60(TB) leukemia): > 100 µM | TGI (K-562 leukemia): > 100 µM | TGI (DLD-1 colon): > 100 µM | TGI (MOLT-4 leukemia): > 100 µM | TGI (CCRF-CEM leukemia): > 100 µM | TGI (SNB-78 CNS): > 100 µM | TGI (SK-MEL-2 melanoma): > 100 µM | TGI (HCT-15 colon): > 100 µM

COc1ccc(/C=C/C(=O)c2cc3c(N)c(C(=O)Nc4ccccc4Cl)sc3nc2C)cc1
GI50 (HL-60(TB) leukemia): 1.74 µM | TGI (HL-60(TB) leukemia): > 50 µM | GI50 (K-562 leukemia): 2.49 µM | TGI (K-562 leukemia): > 50 µM | GI50 (MOLT-4 leukemia): 4.59 µM | TGI (MOLT-4 leukemia): > 50 µM | GI50 (CCRF-CEM leukemia): 10.4 µM | TGI (CCRF-CEM leukemia): > 50 µM | GI50 (SK-MEL-2 melanoma): 1.31 µM | TGI (SK-MEL-2 melanoma): 16.7 µM | GI50 (HCT-15 colon): 2.96 µM | TGI (HCT-15 colon): > 50 µM

Cc1ccc(NC(=O)CC2C(=O)Nc3ccccc3S2=O)cc1C (stereo unspecified)
TGI (HL-60(TB) leukemia): > 100 µM | TGI (K-562 leukemia): > 100 µM | TGI (DLD-1 colon): > 100 µM | TGI (MOLT-4 leukemia): > 100 µM | TGI (CCRF-CEM leukemia): > 100 µM | TGI (SNB-78 CNS): > 100 µM | TGI (KM20L2 colon): > 100 µM | TGI (SK-MEL-2 melanoma): > 100 µM | TGI (HCT-15 colon): > 100 µM

N#CC(C(=O)/C(=N/N)C(C#N)c1ccc(Cl)cc1)c1ccc(Cl)cc1 (stereo unspecified)
TGI (HL-60(TB) leukemia): > 100 µM | TGI (K-562 leukemia): > 100 µM | TGI (DLD-1 colon): > 100 µM | TGI (MOLT-4 leukemia): > 100 µM | TGI (CCRF-CEM leukemia): > 100 µM | TGI (SNB-78 CNS): > 100 µM | TGI (KM20L2 colon): > 100 µM | TGI (SK-MEL-2 melanoma): > 100 µM | TGI (HCT-15 colon): > 100 µM

Cc1c(C#N)cccc1-c1cc(-c2cn(Cc3cccc(C(C)(C)O)n3)nn2)nc(N)n1
GI50 (HL-60(TB) leukemia): 12.2 µM | TGI (HL-60(TB) leukemia): 46 µM | GI50 (K-562 leukemia): 13.4 µM | TGI (K-562 leukemia): > 100 µM | GI50 (MOLT-4 leukemia): 21.3 µM | TGI (MOLT-4 leukemia): > 100 µM | GI50 (CCRF-CEM leukemia): 16.3 µM | TGI (CCRF-CEM leukemia): > 100 µM | GI50 (SK-MEL-2 melanoma): 21.3 µM | TGI (SK-MEL-2 melanoma): 79.3 µM | GI50 (HCT-15 colon): 23.2 µM | TGI (HCT-15 colon): > 100 µM
